Experimental findings from patent US20250257357A1, “TREATMENT OF H3.3-MUTANT BRAIN CANCER WITH PNKP INHIBITORS” (UNIVERSITE PARIS CITE, priority 2022, published 2025) are described below.

This test relates to Hela cells. Nature of the test: RAD51 and 53BP1 repair foci by immunofluorescence in Hela cells with EZH2 inhibition. The class given is cell-based, human. The note with it: 72 h, 1 μM, damaged with camptothecin (3 h, 0.1 μM), FIG. 2B. On the procedure:
Camptothecin (CPT, Sigma-Aldrich) was used at 0.1 μM for 3 h, or at 1 μM for 1 or 3 h for iPOND in human cells, and at 5 or 10 μM in yeast cells; hydroxyurea (HU, Sigma-Aldrich) at 2 mM for 3 h; mitomycin C (MMC, Sigma-Aldrich) at 200 ng/ml and 25 ng/ml for 24 h for repair foci analyses and metaphase spreads, respectively; bleomycin (Bleo, Sigma-Aldrich) at 20 µg/mL for 3 h. An overnight treatment with 2 mM Thymidine followed by 3 h release in fresh medium was used to enrich cells in S phase for iPOND experiments (70-75% of cells were in S phase as evaluated by FACS). The EZH2 inhibitor GSK126 (EZH2i, Selleckchem) was used at 1 μM for 72 h.
Cells grown on glass coverslips (VWR) were either fixed directly with 2% paraformaldehyde (PFA) and permeabilized with 0.2% Triton X-100 in PBS or pre-extracted before fixation with 0.5% Triton X-100 in CSK buffer (Cytoskeletal buffer: 10 mM PIPES pH 7.0, 100 mM NaCl, 300 mM sucrose, 3 mM MgCl2) to remove soluble proteins (not bound to chromatin) and then fixed with 2% PFA. […] Images were mounted with Adobe Photoshop applying the same treatment of fluorescence levels to all images from the same experiment. […] The position of the LacO array was determined based on mCherry-LacR signal. DNA repair and PLA foci were identified and counted by using the find maxima function (Fiji software), on maximum intensity z-projections in the case of PLA foci. […]

For `CC[C@H](C)n1cc(C)c2c(C(=O)NCc3c(C)cc(C)[nH]c3=O)cc(-c3ccc(N4CCNCC4)nc3)cc21` [EZH2i, GSK126], the “RAD51 and 53BP1 foci (DNA repair defect)” value was “did not recapitulate the DNA repair defect”.
